Laboratory results: patent publication US12110496B2, “Method of determining the zygosity of event MON 88302” (priority 2010, dated 2024)

Tests used:
[1] = tested on: canola comprising event MON 88302 (Ebony germplasm); test: Field trial of glyphosate tolerance, MON 88302 event (crop injury, maturity, seed moisture, yield); format: in vivo, Brassica napus; conditions: for 7-10 DAT % CHLR Avg / 14-21 DAT % GR Avg: MON88302
Excerpt: (§1) The current registered glyphosate rate for the Genuity™ Roundup Ready® Canola system (event RT73) is a single application of 675 g ae/ha or two 450 g ae/ha applications up to the six leaf stage of the canola crop. RT73 was compared with the MON 88302 event at multiple single application rates of glyphosate. Applications were made from post emergence to the first flower of the canola crop. The Genuity™ Roundup Ready® Canola system (RT73 event) was represented by the commercial open pollinated variety 34-65, and event MON88302 was transformed into the Ebony germplasm.
(§2) Eight trials were established with six taken to harvest (one site was lost to drought and one site was lost to hail, and data from one harvested site was not used due to the coefficient of variation (CV) exceeding the predetermined cut-off value). Standard canola growing practices were utilized throughout the season to optimize plant growth. Pre-emergent and post-emergent conventional herbicides and seed treatment containing fungicide and insecticide were used to minimize pest pressure. Trials were set up as a split block design with Genuity™ Roundup Ready® Canola (RT73 event) or MON 88302 systems blocked and herbicide rates randomized within the block. Plots were two by six meters and replicated three times. Plots were sprayed with handheld boom sprayers at 100-110 l/ha application rate at the appropriate crop stage. The Canadian formulation of Roundup WeatherMAX® (540 g/L) was used as the glyphosate product. The four to six leaf stage was defined as four to six true leaves on the main stem, and first flower was when 50% of the plants had at least one flower. Percent chlorosis (% CHLR) was recorded seven to ten days after herbicide application (DAT or days after treatment). Percent chlorosis is a visual estimate of the amount of yellowing on the leaves of plants as a result of herbicide treatment compared to the untreated check on a 1 to 100 scale. Percent growth reduction (% GR) was recorded 14-21 days after herbicide application (DAT). Percent growth reduction is a visual evaluation used to describe plant growth reduction consisting of, but not limited to, reduced height and/or quantity of foliage for the treated area. The evaluation pertains only to the above ground portion of the plant. Percent growth reduction is compared to the non-treated check and is rated on a 1 to 100 scale. Maturity was recorded as days after planting to when 30% of the seeds on the main raceme are brown/black in color. Percent seed moisture was recorded electronically during harvesting. All plots were swathed and then allowed to dry until seed moisture was low enough to facilitate harvesting. Weight and seed moisture was recorded electronically during harvesting and converted to bushels/acre at 10% seed moisture. Each location was analyzed individually and averages across locations were analyzed using statistical software. Data were screened for outliers using the standard two-pass procedure based on deleted studentized residuals using a False Discovery Rate (FDR) adjustment for an experiment-wise Type I error rate of 5% at each location. Outliers were removed prior to analysis. The standard analysis of variance for a split-plot design was performed by mixed model with restricted maximum likelihood estimation-variety and herbicide treatments were treated as fixed effects, replications and locations were random effects. Least-squares means were calculated for each variety and each treatment, and t-tests with comparison-wise error rates of 5% were used to determine the significance between variety and control at each herbicide treatment level on canola growth characteristics. Crop injury, maturity, and yield were measured to assess benefits.

[2] = tested on: canola comprising event RT73 (Genuity Roundup Ready Canola, variety 34-65); test: Field trial of glyphosate tolerance, RT73 event (crop injury, maturity, seed moisture, yield); format: in vivo, Brassica napus
Excerpt: as §1, §2

[3] = tested on: Brassica napus events from construct 2; test: First year efficacy field trials, construct 2 events; format: in vivo
Procedure: The 25 events were also evaluated in first year field testing for efficacy located at the same testing site as the agronomy field trials. Efficacy field trials were initiated to evaluate the vegetative and reproductive tolerance of the events to sequential applications of glyphosate at various application timings and rates. The 16 R2 events from construct 1 were evaluated at 5 locations. The 3 R2 events from construct 2, the 3 R2 events from construct 4, and the 3 R2 events from construct 5 were evaluated at 4 locations. Each study contained the positive isoline of each event and two commercial varieties. […]
Events were evaluated for vegetative and reproductive tolerance to either a single application of 1.6 lb AE/A or two sequential applications of 0.8 lb AE/A when applied from crop emergence up to first flower. […]
(§3) Data Collection was performed as above. Glyphosate injury was assessed as follows. […] Vegetative injury was rated after the first glyphosate application while reproductive percent chlorosis/necrosis was evaluated after the second application using a scale ranging from 0% (no injury) to 100% (plant death). Growth reduction was evaluated at 14 to 21 days after each application using a scale ranging from 0 to 100%. Vegetative growth reduction was evaluated after the first application while reproductive growth reduction was determined after the sequential application. […]

[4] = tested on: Brassica napus events from construct 1; test: First year efficacy field trials, construct 1 events; format: in vivo
Procedure: The 25 events were also evaluated in first year field testing for efficacy located at the same testing site as the agronomy field trials. Efficacy field trials were initiated to evaluate the vegetative and reproductive tolerance of the events to sequential applications of glyphosate at various application timings and rates. The 16 R2 events from construct 1 were evaluated at 5 locations. The 3 R2 events from construct 2, the 3 R2 events from construct 4, and the 3 R2 events from construct 5 were evaluated at 4 locations. Each study contained the positive isoline of each event and two commercial varieties. A split plot design with 3 replications was used with herbicide treatments as whole plots and event entries as subplots. A non-sprayed treatment was included for comparison.
Events were evaluated for vegetative and reproductive tolerance to either a single application of 1.6 lb AE/A or two sequential applications of 0.8 lb AE/A when applied from crop emergence up to first flower. Roundup WeatherMAX® was applied at three different rates that were equivalent to 2×, 4×, and 8× of the single application rate (Table 2). The initial application was made at the four leaf stage followed by a second application at the prebolt stage. […]
as §3, with “application. Least-squares means were calculated for each combination of glyphosate level and event, and t-tests were used to determine the significance of the effects of glyphosate on event tolerance.” for “application.”

[5] = glyphosate 450 g ae/ha at 1st flower
[6] = glyphosate 450 g ae/ha at 4-6 leaf
[7] = glyphosate 900 g ae/ha at 1st flower
[8] = glyphosate 900 g ae/ha at 4-6 leaf
[9] = glyphosate 1800 g ae/ha at 1st flower
[10] = glyphosate 3600 g ae/ha at 1st flower
[11] = glyphosate 3600 g ae/ha at 4-6 leaf
[12] = glyphosate 11800 g ae/ha at 4-6 leaf
[13] = glyphosate 1800 g ae/ha at 4-6 leaf

**Q.** Which “7-10 DAT % CHLR Avg” value [1, 5] does the source give for `O=C(O)CNCP(=O)(O)O` [glyphosate, N-phosphonomethyl-glycine] here?
**A.** 0.0%

**Q.** What about the “14-21 DAT % GR Avg” value [1, 5] of the same compound?
**A.** 0.0%

**Q.** And the “7-10 DAT % CHLR Avg” value [1, 6]?
**A.** 0.0%

**Q.** What about the “14-21 DAT % GR Avg” value [1, 6] of the same compound?
**A.** 0.3%

**Q.** What about the “7-10 DAT % CHLR Avg” value [1, 7] of the same compound?
**A.** 0.3%

**Q.** What about the “14-21 DAT % GR Avg” value [1, 7] of the same compound?
**A.** 0.8%

**Q.** What about the “7-10 DAT % CHLR Avg” value [1, 8] of the same compound?
**A.** 0.7%

**Q.** And the “14-21 DAT % GR Avg” value [1, 8]?
**A.** 0.7%

**Q.** What about the “7-10 DAT % CHLR Avg” value [1, 9] of the same compound?
**A.** 0.9%

**Q.** And the “14-21 DAT % GR Avg” value [1, 9]?
**A.** 0.0%

**Q.** And the “7-10 DAT % CHLR Avg” value [1, 10]?
**A.** 4.7%

**Q.** And the “14-21 DAT % GR Avg” value [1, 10]?
**A.** 1.1%

**Q.** What about the “7-10 DAT % CHLR Avg” value [1, 11] of the same compound?
**A.** 1.7%

**Q.** What about the “14-21 DAT % GR Avg” value [1, 11] of the same compound?
**A.** 0.3%

**Q.** And the “7-10 DAT % CHLR Avg” value [1, 12]?
**A.** 1.7%

**Q.** What about the “14-21 DAT % GR Avg” value [1, 12] of the same compound?
**A.** no percent growth reduction

**Q.** And the “14-21 DAT % GR Avg” value ([1]; glyphosate 11800 g ae/ha at 4-6 leaf, listed as Glyphosate)?
**A.** 0.0%

**Q.** And the “yield reduction” value ([1]; MON 88302 plants, 1800 g ae/ha and 2× at four to six leaf (FIG. 2))?
**A.** No significant yield reductions

**Q.** And the “maturity” value ([1]; MON 88302 plants, 1800 g ae/ha at four to six leaf)?
**A.** significant shortening of maturity

**Q.** And the “maturity” value ([1]; MON 88302 plants, all rates except 1800 g ae/ha at four to six leaf)?
**A.** No delay in maturity

**Q.** And the “yield vs unsprayed” value ([1]; MON 88302 plants, any rate or timing)?
**A.** No significant differences in yield

**Q.** What about the “yield reduction” value ([1]; MON 88302 plants, glyphosate rates at first flower (FIG. 3)) of the same compound?
**A.** No significant yield reductions

**Q.** What about the yield reduction ([2]; 2× the proposed rate of 1800 g ae/ha at four to six leaf) of the same compound?
**A.** 30%

**Q.** What about the “yield vs unsprayed” value ([2]; 1800 and 3600 g ae/ha at both stages and 900 g/ha at first flower) of the same compound?
**A.** significant yield reduction

**Q.** What about the yield reduction ([2]; 1800 g ae/ha at four to six leaf) of the same compound?
**A.** 11.4%

**Q.** What about the “maturity” value ([2]; 3600 g ae/ha at both four to six leaf and first flower) of the same compound?
**A.** delayed significantly

**Q.** What about the “yield reduction” value ([2]; all rates shown at first flower (FIG. 3)) of the same compound?
**A.** significant yield reduction

**Q.** And the “7-10 DAT % CHLR Avg” value [2, 5]?
**A.** 0.6%

**Q.** What about the “14-21 DAT % GR Avg” value [2, 5] of the same compound?
**A.** 0.8%

**Q.** And the “7-10 DAT % CHLR Avg” value [2, 6]?
**A.** 0.3%

**Q.** What about the “14-21 DAT % GR Avg” value [2, 6] of the same compound?
**A.** 0.9%

**Q.** And the “7-10 DAT % CHLR Avg” value [2, 7]?
**A.** 1.8%

**Q.** And the “14-21 DAT % GR Avg” value [2, 7]?
**A.** 0.3%

**Q.** And the “7-10 DAT % CHLR Avg” value [2, 8]?
**A.** 2.2%

**Q.** And the “14-21 DAT % GR Avg” value [2, 8]?
**A.** 1.3%

**Q.** And the “7-10 DAT % CHLR Avg” value [2, 9]?
**A.** 6.7%

**Q.** What about the “14-21 DAT % GR Avg” value [2, 9] of the same compound?
**A.** 3.3%

**Q.** What about the “7-10 DAT % CHLR Avg” value [2, 13] of the same compound?
**A.** 4.7%

**Q.** And the “14-21 DAT % GR Avg” value [2, 13]?
**A.** 5.3%

**Q.** And the “7-10 DAT % CHLR Avg” value [2, 10]?
**A.** 10%

**Q.** What about the “14-21 DAT % GR Avg” value [2, 10] of the same compound?
**A.** 8.1%

**Q.** And the “7-10 DAT % CHLR Avg” value ([2]; glyphosate 3600 g ae/ha at 1st flower, listed as Glyphosate)?
**A.** 10.0%

**Q.** And the “7-10 DAT % CHLR Avg” value [2, 11]?
**A.** 10%

**Q.** And the “14-21 DAT % GR Avg” value [2, 11]?
**A.** 20.8%

**Q.** What about the “7-10 DAT % CHLR Avg” value ([2]; glyphosate 3600 g ae/ha at 4-6 leaf, listed as Glyphosate) of the same compound?
**A.** 10.0%

**Q.** And the “yield” value ([3]; all construct 2 events, regardless of application rate)?
**A.** significantly reduced the yield

**Q.** What about the “injury” value ([3]; construct 2 events, all glyphosate rates tested) of the same compound?
**A.** Unacceptable levels of injury

**Q.** And the “vegetative injury” value ([4]; 2× product concept rate)?
**A.** very minor

**Q.** And the “yield” value ([4]; regardless of rate, one event excepted at 6.4 lb AE/A followed by 6.4 lb AE/A)?
**A.** not negatively impacted

**Q.** And the “vegetative and reproductive tolerance to glyphosate” value ([4]; sequential applications at four leaf and prebolt, 2×, 4×, 8× rates)?
**A.** excellent vegetative and reproductive tolerance
